Patent publication US20240092728A1, “HYDROXY-SUBSTITUTED SPHINGOLIPIDS” (Evonik Operations GmbH, priority 2021, published 2024)

Legend:
[1] = tested on: normal human epidermal keratinocytes (NHEK); assay: DNA damage and repair after UV irradiation (Comet assay); type: cell-based
Method: (§1) The extent to which the substances of the invention are able to exert a protective effect on normal human epidermal keratinocytes (NHEK) exposed to UV irradiation was examined.
(§2) For this, corresponding investigations were carried out of biomarkers for reactive oxygen species (ROS), quantified with 2,7-dichlorodihydrofluorescein diacetate, and DNA damage and repair, quantified by the Comet assay.
6-well plates were seeded with the keratinocytes, which were incubated for 48 hours in culture medium, with the medium replenished after 24 hours. The medium was then replaced by culture medium containing the test compounds or the references (0.3 mM control) or in which they were absent (control) and the cells were incubated for 24 hours. After the preincubation, the culture medium was removed and assay medium again added and the cells were irradiated with 250 mJ/cm^2 UVB+UVA (+1.6 J/cm^2) in the absence of the compounds. The lamp used was a SOL500 solar simulator (Dr. Hönle, AG) fitted with an H2 filter. An unirradiated control condition was carried out in parallel. All experimental conditions were carried out in duplicate.
At the end of the irradiation, the culture supernatants were discarded and the cells were washed with phosphate-buffered saline (PBS) prior to analysis.
The cells were trypsinized and counted and the supernatant was removed after centrifugation. The cells were then washed with PBS solution and suspended in the same PBS solution so as to achieve a cell concentration of 1×10^5 cells/ml. The cell suspension was then mixed with molten (37° C.) 1% agarose gel of low melting point and pipetted onto the Comet microscope slides (duplicate analysis for each condition). For cell lysis, the microscope slides were immersed in a freshly prepared alkaline solution (200 mM NaOH containing 1 mM EDTA, pH>13) on an electrophoresis support. The gel electrophoresis was carried out at 21 volts for 30 minutes. The Comet microscope slides were washed twice with water, each time for 5 minutes, then washed with 70% ethanol for 5 minutes and air-dried at 37° C. for 15 minutes.
After the electrophoresis, each dried sample was stained with a DNA intercalating fluorescent dye (SYBR Green solution). The cells were then observed in epifluorescence using an automated IN Cell Analyzer™ 2200 microscope image analyser (GE Healthcare) (X10 objective lens). On excitation (ex 494 nm, em 524 nm), the DNA-bound SYBR® Green emits green light. […] If DNA damage has occurred, the alkali treatment causes the DNA to […], releasing fragments that migrate outside the cell when exposed to an electric field. The negatively charged DNA migrates to the anode, the extrusion length being proportional to the relaxation of the supercoiled structure, which is an indicator of damage. When alkaline electrophoresis conditions are employed, the distribution of the DNA between the tail and comet head can be used to determine the extent of the DNA damage. The images of the cells were analysed with OpenComet in conjunction with ImageJ software. In each replicate of the analysis, a minimum value of 500 events was analysed.

[2] = tested on: normal human epidermal keratinocytes (NHEK); assay: ROS production after UV irradiation (2,7-DCDHF-DA fluorescence); type: cell-based
Method: as §1, §2
The intracellular formation of reactive […] species (ROS) is inter alia a factor that leads to damage of cellular DNA by UV radiation.
96-well plates were seeded with keratinocytes, which were cultured for 24 hours in culture medium and then for a further 24 hours in assay medium. The medium was then replaced by a test medium containing the test compounds or the references (100 μM vitamin E and 10 μM EGCG) or in which they were absent (irradiated control) and the cells were preincubated for 24 hours. After preincubation, the medium was removed and replaced by assay medium, the fluorescent probe (2,7-dichlorodihydrofluorescein diacetate (10 μM 2,7-DCDHF-DA in assay medium) was added and the cells were incubated at 37° C. for 30 minutes. The cells were then washed with PBS solution and irradiated with 100 mJ/cm^2 UVB+UVA (+0.7 J/cm^2) without compounds or references. The lamp used was a SOL500 solar simulator with H2 filter (Dr. Honle, AG). After irradiation, the cells were incubated for 30 minutes. An unirradiated control and the conditions without sample (background noise) were carried out in parallel.
All experimental conditions were carried out in triplicate.
The emitted intensity of fluorescence (ex=485 nm, em=538 nm) was measured using an EnVision® (Perkin Elmer) microplate reader.
The intensity of fluorescence of the metabolized sample (DCF) was proportional to the formation of ROS. ROS production was therefore expressed as the relative intensity of fluorescence.

sun-stressed skin [3] = assay: In-vivo study: density of the dermis by ultrasound on outside of forearm; set-up: species or system human; unit not given here; conditions: formulation applied twice daily to forearm; for Δ skin density W2 − W0: after 2 weeks; for Δ skin density W4 − W0: after 4 weeks; for Δ skin density W8 − W0: after 8 weeks
Method: (§3) For the in-vivo study, 24 test subjects (male and female) with sun-stressed skin were recruited. In order to ensure sun-stressed skin, this study was carried out in the period from September to November. […] The test subjects received either two different test formulations, which they applied to one forearm each, or one test formulation. which was applied to one forearm with the second forearm remaining untreated (control). The test formulations were a vehicle and a formulation containing 0.1% of hydroxybutyroyl phytosphingosine (hydroxybutyroyl PS). The various test combinations were assigned to the test subjects randomly. The test subjects applied the test formulations for a period of 8 weeks twice daily to the inside and outside of in each case one forearm. The following measurements on the forearms were carried out before the start of application and after two, four and eight weeks: • 1. Colour measurement: A colorimeter probe (Skin-Colorimeter CL 400, Courage & Khazaka, Cologne) was used to measure the parameters L* and ITA° on the outside of the forearm. L* describes the black/white value of the skin, ITA° describes the skin tone. When skin becomes lighter, both values show an increase. • 2. Skin roughness: This parameter was determined by means of a special camera on the inside of the forearm (Visioscan VC 98, Courage & Khazaka). This camera records a digital black-and-white image of the skin. The grayscale distribution of the image can be used to determine the skin roughness. • 3. Density of the dermis: The density of the dermis was determined by ultrasound on the outside of the forearm (SkinLab Combo, Cortex Technologies, Denmark). For this, a special probe transmits an ultrasound signal to the skin and records the reflection. This reflection can be used to determine a value for the skin density. A reduced skin density is shown in particular by areas of skin that have been very strongly exposed to sunlight.

sun-stressed skin [4] = assay: In-vivo study: skin colour measurement (L*, ITA°) on outside of forearm; set-up: species or system human; conditions: formulation applied twice daily to forearm; for ΔITA° W2 − W0 / ΔL* W2 − W0: after 2 weeks; for ΔITA° W4 − W0 / ΔL* W4 − W0: after 4 weeks; for ΔITA° W8 − W0 / ΔL* W8 − W0: after 8 weeks
Method: as §3

sun-stressed skin [5] = assay: In-vivo study: skin roughness on inside of forearm (Visioscan VC 98); set-up: species or system human; unit not given here; conditions: formulation applied twice daily to forearm; for Decrease in roughness W2 − W0: after 2 weeks; for Decrease in roughness W4 − W0: after 4 weeks; for Decrease in roughness W8 − W0: after 8 weeks
Method: as §3

[6] = 10 μM, 24 h preincubation, 250 mJ/cm^2 UVB+UVA
[7] = 10 μM, 24 h preincubation, 100 mJ/cm^2 UVB+UVA
[8] = 5 μM, 24 h preincubation, 100 mJ/cm^2 UVB+UVA

Molecule	protective effect against DNA damage after UV irradiation [1, 6] [%]	protective effect against the formation of ROS [2, 7] [%]	Δ skin density W2 − W0 (sun-stressed skin [3])	Δ skin density W4 − W0 (sun-stressed skin [3])	Δ skin density W8 − W0 (sun-stressed skin [3])	ΔITA° W2 − W0 (sun-stressed skin [4])	ΔL* W2 − W0 (sun-stressed skin [4])	ΔITA° W4 − W0 (sun-stressed skin [4])	ΔL* W4 − W0 (sun-stressed skin [4])	ΔITA° W8 − W0 (sun-stressed skin [4])	ΔL* W8 − W0 (sun-stressed skin [4])	Decrease in roughness W2 − W0 (sun-stressed skin [5])	Decrease in roughness W4 − W0 (sun-stressed skin [5])	Decrease in roughness W8 − W0 (sun-stressed skin [5])	protective effect against DNA damage after UV irradiation ([1]; 5 μM, 24 h preincubation, 250 mJ/cm^2 UVB+UVA) [%]	protective effect against the formation of ROS [2, 8] [%]	protective effect against DNA damage after UV irradiation ([1]; 2 μM, 24 h preincubation, 250 mJ/cm^2 UVB+UVA) [%]	protective effect against DNA damage after UV irradiation ([1]; concentration not stated (FIG. 2))	protective effect against the formation of ROS ([2]; concentration not stated (FIG. 1; with increasing concentration))	protective effect against DNA damage after UV irradiation ([1]; reference 0.3 mM, 250 mJ/cm^2 UVB+UVA)
3-Hydroxypropioyl phytosphingosine [Ex 1c]	13	5	.82	0.98	0.82	2.41	0.58	4.89	1.92	8.67	2.55	−1.20	−5.55	−6.21						
6-Hydroxyhexanoyl phytosphingosine [Ex 1b]			3.33	4.24	4.63	5.11	1.38	7.53	2.51	12.24	4.38	−6.20	−14.36	−15.88						
CCCCCCCCCCCCCCC[C@@H](O)[C@H](CO)NC(=O)C(O)C(C)(C)CO (some centres unmarked) [Ex 5b, 2-hydroxy-3,3-dimethyl-hydroxybutyroyl sphinganine]			2.23	3.25	3.64	3.54	0.92	6.21	2.02	10.52	3.28	−3.2	−12.34	−13.63	24	22				
CCCCCCCCCCCCCCC(O)C(O)C(CO)NC(=O)C(O)C(C)(C)CO (centres unmarked) [Example 5, 2-hydroxy-3,3-dimethyl-hydroxybutyroyl phytosphingosine]																38	39			
CCCCCCCCCCCCCC[C@@H](O)[C@@H](O)[C@@H](N)CO [phytosphingosine]																		cannot be demonstrated	No significant protective effect	
O=S(=O)(O)c1cc(O)c(O)c(S(=O)(=O)O)c1 [tiron]																				approximately 60%
Ceramide 3 [Cer 3]	12	4	1.20	1.50	1.80	2.34	0.60	5.21	1.82	8.79	2.61	0.05	−5.12	−4.66						
